Assay: Solubility (20° C.) of branched chain-containing and straight chain-containing aromatic compounds in various solvents
Details: for solubility in ethyl acetate: saturated in ethyl acetate at 20° C.; for solubility in isopropyl acetate: saturated in isopropyl acetate at 20° C.; for solubility in CPME: saturated in CPME (cyclopentylmethylether) at 20° C.; for solubility in chloroform: saturated in chloroform at 20° C.; for solubility in toluene: saturated in toluene at 20° C.

Row | solubility in ethyl acetate | solubility in isopropyl acetate | solubility in CPME | solubility in chloroform | solubility in toluene | Compound
1 | 0.3 wt % | 0.06 wt % |  |  |  | CCCCCCCCCCCCCCCCCCCCCCOc1ccc(CO)c(OCCCCCCCCCCCCCCCCCCCCCC)c1 [compound 2]
2 | 0.2 wt % | 0.02 wt % | 4.5 wt % | 9.9 wt % | 2.6 wt % | CCCCCCCCCCCCCCCCCCOc1cc(CO)cc(OCCCCCCCCCCCCCCCCCC)c1OCCCCCCCCCCCCCCCCCC [Comparative Example 1]
3 | 0.2 wt % | 0.1 wt % | 0.01 wt % | 0.8 wt % | 0.01 wt % | CCCCCCCCCCCCCCCCCCCCCCOc1ccc(C(N)c2ccc(C)cc2)cc1 (centres unmarked) [compound 3]
4 | >50 wt % | >50 wt % | >50 wt % | >50 wt % | >50 wt % | 3,4,5-tri(2′,3′-dihydrophytyloxy)benzyl alcohol [Example 5]

Row | Compound | solubility in ethyl acetate | solubility in isopropyl acetate | solubility in CPME | solubility in chloroform | solubility in toluene
5 | TERGITOL-Adduct of 3-hydroxymethylphenol [Example 21] | >50 wt % |  | >50 wt % | >50 wt % | 

From US10711033B2, “Branched chain-containing aromatic compound” (AJINOMOTO CO., INC., priority 2010, dated 2020)
